Data reported in patent publication US10112943B2, “Substituted imidazoles as gamma secretase modulators” (Janssen Pharmaceutica NV, priority 2012, dated 2018).

Tests used:
Aβ42 = assay: In vivo efficacy: brain levels of soluble Aβ42 in non-transgenic rodents (MSD electrochemiluminescence); design: species or system mouse; conditions: dose 30 mg/kg oral dosing, soluble fraction, untreated animals (Ctrl) set at 100, typical protocol 4 h after dose
From the text: To determine whether acute administration of an Aβ42 lowering agent would reduce Aβ42 levels in vivo, non-transgenic rodents, e.g. mice or rats were used. Animals treated with the Aβ42 lowering agent were examined and compared to those untreated or treated with vehicle and brain levels of soluble Aβ42, Aβ40, Aβ38, and Aβ37 were quantitated by Meso Scale Discovery's (MSD) electrochemiluminescence detection technology. Treatment periods varied from hours (h) to days and were adjusted based on the results of the Aβ42 lowering once a time course of onset of effect could be established.
A typical protocol for measuring Aβ42 lowering in vivo is shown but it is only one of many variations that could be used to optimize the levels of detectable Aβ. […] After 4 h, the animals were sacrificed and Aβ42 levels were analysed.
(§1) Blood was collected by decapitation and exsanguinations in EDTA-treated collection tubes. […] The left hemisphere was stored at −18° C. for quantitative analysis of test compound levels. […]
(§2) Mouse brains from non-transgenic animals were resuspended in 8 volumes of 0.4% DEA (diethylamine)/50 mM NaCl containing protease inhibitors (Roche-11873580001 or 04693159001) per gram of tissue, e.g. for 0.158 g brain, add 1.264 ml of 0.4% DEA. […] Nine parts of supernatant were neutralized with 1 part 0.5 M Tris-HCl pH 6.8 and used to quantify Aβ. […]

Aβ38 = assay: In vivo efficacy: brain levels of soluble Aβ38 in non-transgenic rodents (MSD electrochemiluminescence); design: species or system mouse; conditions: dose 30 mg/kg oral dosing, soluble fraction, untreated animals (Ctrl) set at 100, typical protocol 4 h after dose
From the text: To determine whether acute administration of an Aβ38 increasing agents would increase Aβ38 levels in vivo, non-transgenic rodents, e.g. mice or rats were used. Animals treated with the Aβ38 increasing agents were examined and compared to those untreated or treated with vehicle and brain levels of soluble Aβ42, Aβ40, Aβ38, and Aβ37 were quantitated by MSD electrochemiluminescence detection technology. Treatment periods varied from hours (h) to days and were adjusted based on the results of the Aβ38 increase once a time course of onset of effect could be established.
A typical protocol for measuring Aβ38 increase in vivo is shown but it is only one of many variations that could be used to optimize the levels of detectable Aβ. […] After 4 h, the animals were sacrificed and Aβ38 levels were analysed.
as §1, §2

Cc1cn(-c2ccc3n(c2=O)C[C@@H]2CC[C@@H](Cc4cc(C(F)(F)F)cc(C(F)(F)F)c4)N2C3=O)cn1 (single isomer, unassigned) [Compound 4, 3-[[3,5-bis(trifluoromethyl)phenyl]methyl]-2,3,11,11a-tetrahydro-8-(4-methyl-1H-imidazol-1-yl)-1H-pyrido[1,2-a]pyrrolo[1,2-d]pyrazine-5,9-dione ((3S, 11aS) or (3R, 11aR))]
Aβ42 (% vs Ctrl) _Mean (Aβ42): 47 % vs Ctrl
Aβ38 (% vs Ctrl) _Mean (Aβ38): 136 % vs Ctrl
